# Measured values: patent US20040132037A1, “Materials and methods for the induction of premature chromosone condensation” (priority 2004, published 2004)
# Like-named read-outs stand apart in the source and are kept apart here.
# What was measured:
# mitogen-stimulated HPBL = experiment: PCC induction (PCC index) by OA in mitogen-stimulated HPBL; type: cell-based, human
# Procedure: (§1) PCC spreads may be prepared according to standard cytogenetic procedures directly after the indicated treatment. Briefly, cells may be treated with a hypotonic potassium chloride (0.075 M) solution for 5 minutes and fixed in acetic: methanol (1:3) fixative. Fixed cells may be dropped onto acid cleaned glass slides.
# (§2) To directly visualize the spread chromosomes, the slides may be stained. Suitable stains are known to those of skill in the art, for example, a 4% aqueous solution of Giemsa stain may be used for observation under a light microscope. Coded slides can be analyzed under 1000×magnification. Cells with condensed chromatin material displaying at least partial separation of chromosomes are scored as PCC spreads.
# (§3) The PCC index may be determined as follows. [formula]
# HPBLs prepared as described above may be incubated in cell culture medium supplemented with an energy source. In order to determine the optimal OA concentration and duration of incubation for PCC, phytohemagglutinin (PHA, 10 μg/ml; Murex Diagnostics) was subsequently added to the medium to stimulate proliferation.
# (§4) The HPBL were treated with OA at concentrations ranging from 0.25 to 1 μM in a cell culture medium containing 100 μM ATP and incubated at 37° C. for varying durations of up to 24 hours. Slides were prepared and PCC index was determined as explained above.
# [1] = system: human myeloid leukemic cell lines; conditions: cited from earlier work
# unstimulated HPBL = experiment: PCC induction (PCC index) in unstimulated HPBL; type: cell-based, human; conditions: cell culture medium containing OA alone, no mitogen
# Procedure: as §1, §2, §3, §4
# In the following working example of the present invention, PCC induction in unstimulated HPBL was accomplished by the addition of p34^cdc2/cyclin B kinase to the complete media supplemented with ATP (100 μM) containing OA (0.75 μM) and incubation for three hours at 37° C. […]
smiles,measurement,setting,value
"C=C1[C@@H](O)[C@@H]2O[C@]3(CC[C@H](/C=C/[C@@H](C)[C@@H]4CC(C)=C[C@@]5(O[C@H](C[C@@](C)(O)C(=O)O)CC[C@H]5O)O4)O3)CC[C@H]2O[C@@H]1[C@@H](O)C[C@H](C)[C@H]1O[C@@]2(CCCCO2)CC[C@H]1C [OA, okadaic acid]",PCC levels determined by PCC index compared with controls,"mitogen-stimulated HPBL; OA 0.25 μM, within 1 hour, p<0.01, Student's t-test",significant
same,cytostatic effect,mitogen-stimulated HPBL; OA 0.75 μM,not cytostatic
same,"PCC index, maximum","mitogen-stimulated HPBL; OA 1 μM, 8 hours, PHA 10 μg/ml, 100 μM ATP, 37° C.",61%
same,quality of PCC spreads,"mitogen-stimulated HPBL; prolonged treatment with higher concentrations of OA, possibly due to toxicity",poor spread quality
same,phase of cell-cycle arrest,[1]; higher PCC inducible concentrations (above 0.5 μM),G1-S-phase
same,phase of cell-cycle arrest,[1]; lower concentrations,G2-M phase
same,PCC induction,unstimulated HPBL,did not result in PCC induction
